Values joined by “and” are separate entries in the source; they are usually repeats but may differ in a detail not shown here. Equal entries are not always repeated. Where two headings read alike, the source gives them in different places.
Tests used:
[1] = In vitro cytotoxicity, resazurin assay; format: cell-based, human; settings: human, 24 h; for viability at 24 h, 10 µg/mL: HeLa cell viability at 10 µg/mL, read-out: Viability % ± SD at 10 μg/mL; for viability at 24 h, 50 µg/mL: HeLa cell viability at 50 µg/mL, read-out: Viability % ± SD at 50 μg/mL
Procedure: (§1) The cytotoxicity of the compounds/extracts against HeLa (human cervix adenocarcinoma) cells (Cellonex, South Africa) was evaluated by plating the cells at a density of 2 × 10^4 cells per well in a DMEM medium supplemented with 10% foetal bovine serum and penicillin/streptomycin/amphotericin B antibiotics in 96-well plates. After incubating for 24 h at 37 °C in a humidified 5% CO2 incubator, the test samples were added at a final concentration of 50 µg/mL or 10 µg/mL to the cells in triplicate wells (final volume per well was 200 µL) and further incubated or 24 h. Subsequently, a 20 µL resazurin stock solution (0.6 mM resazurin in phosphate-buffered saline) was added to each well and, after a 4 h incubation, the fluorescence (Exc560/Emm590) was measured on a Spectramax M3 plate reader. The percentage cell viability in the treated wells relative to the wells containing the untreated control cells was calculated from the fluorescence values after subtracting the background readings obtained from the empty wells. Emetine was used as the positive control.

[2] = system: Plasmodium falciparum 3D7 clone; assay: In vitro antiplasmodial activity, parasite lactate dehydrogenase (pLDH) assay; settings: for viability at 10 µg/mL: 3D7, read-out: Viability % ± SD at 10 μg/mL; for viability at 50 µg/mL: 3D7, read-out: Viability % ± SD at 50 μg/mL
Procedure: Malaria parasites (Plasmodium falciparum 3D7 clone) were maintained in an RPMI 1640 medium containing 2 mM L-glutamine and 25 mM Hepes (Lonza). The medium was further supplemented with 5% Albumax II, 20 mM glucose, 0.65 mM hypoxanthine, 60 µg/mL gentamycin, and 2–4% haematocrit human red blood cells. The parasites were cultured at 37 °C under an atmosphere of 5% CO2, 5% O2, and 90% N2 in a sealed T75 culture flask.
For the antiplasmodial activity, the extracts and isolated compounds were first tested at 50 µg/mL and 10 µg/mL in duplicate experiments. IC50 values determined from the dose-response curves were evaluated for the compounds only showing < 50% viability without cytotoxicity at 10 µg/mL. For the IC50 screening, a range of concentrations of the extracts and compounds starting from 100 µg/mL and extended by 3-fold serial dilution were tested in triplicate and standard deviations (SD) were derived where applicable. The parasite viability was determined by measuring the activity of parasite lactate dehydrogenase (pLDH) as described by Makler et al.. Serial dilutions of the extracts and compounds were added to the in vitro cultures of P. falciparum (3D7 clone) in 96-well plates (1% haematocrit, 2% parasitaemia) and incubated for 48 h. To 125 µL solutions containing a mixture of Malstat (0.18 M lactic acid, 0.13 mM 3-acetylpyridine adenine dinucleotide, 0.16% Triton X-100, and 44 mM Tris, pH 9) and NBT/PES (0.39 mM nitro blue tetrazolium and 0.05 mM phenazine ethosulfate), 20 µL of the incubated culture was then added in a fresh 96-well plate. […] The % parasite viability, as indicated by the pLDH activity in the treated wells compared with the untreated controls, was calculated from the absorbance values for each compound/extract. The parasitised RBCs in the absence of test compounds/drug were taken as the untreated control with 100% viability.

[3] = system: HeLa (human cervix adenocarcinoma) cells; assay: In vitro cytotoxicity, resazurin assay; format: cell-based; settings: for IC50: Homo sapiens, HeLa, positive control
Procedure: as §1

[4] = system: P. falciparum; settings: cited from earlier work

## COc1c(-c2ccc(O)c(O)c2)oc2cc(O)cc(O)c2c1=O [3-O-Methylquercetin (4), 3-O-methylquercetin]
[1]; HeLa cells
  viability at 24 h, 10 µg/mL: 57.9 ± 5.2%
  viability at 24 h, 50 µg/mL: 4.5 ± 0.1%
[2]
  viability at 10 µg/mL: 82.9 ± 3%
  viability at 50 µg/mL: 21.9 ± 1.5%

## CCN(CC)CCCC(C)Nc1ccnc2cc(Cl)ccc12 (stereo not shown) [Chloroquine, reference compound]
[2]; 3D7, 48 h
  IC50: 14 nM
[2]; 3D7, read-out: IC50 values ranged
  IC50: 10 to 50 nM

## O=C1c2c(O)cc(O)cc2O[C@H](c2ccc(O)c(O)c2)[C@H]1O [Dihydroquercetin (6), dihydroquercetin]
[2]; 3D7, 48 h
  IC50: 27.6 µg/mL and 90.7 µM

## CC[C@H]1CN2CCc3cc(OC)c(OC)cc3[C@@H]2C[C@@H]1C[C@H]1NCCc2cc(OC)c(OC)cc21 [Emetine, reference compound]
[3]; printed in the 10 µg/mL column
  IC50: 40 nM
[3]; printed in the 50 µg/mL column
  IC50: 33 nM

## O=c1c(O)c(-c2ccc(O)cc2)oc2cc(O)cc(O)c12 [Kaempferol (10), kaempferol]
[4]
  antiplasmodial activity of common dietary flavonoids (reported): moderate to weak antiplasmodial activity
[2]; 3D7, 48 h
  IC50: 25 µg/mL and 87.3 µM

## COC(=O)c1cc(O)c(O)c(O)c1 [Methyl gallate (9), methyl gallate]
[3]; HeLa cell viability at 10 µg/mL, 24 h
  Viability % ± SD at 10 μg/mL: 68.6 ± 2.0%
[1]
  viability at 24 h, 10 µg/mL: 68%
  viability at 24 h, 50 µg/mL: 2 ± 0.2%
[4]
  antiplasmodial activity and selectivity (reported by other investigators): good selective antiplasmodial activity
  combination with quinine: act in synergy with quinine
[2]; 3D7, 48 h
  IC50: 1.2 µg/mL and 6.52 µM
[2]
  viability at 10 µg/mL: 26.9 ± 0.7%
  viability at 50 µg/mL: 17.7 ± 1.5%

## O=c1cc(-c2ccc(O)cc2)oc2cc(O)cc(O)c12 [apigenin]
[4]
  antiplasmodial activity of common dietary flavonoids (reported): moderate to weak antiplasmodial activity

## Oc1cc(O)c2c(c1)O[C@H](c1cc(O)c(O)c(O)c1)[C@@H](O)C2 [gallocatechin (8), gallocatechin]
[4]
  activity against P. falciparum (previously reported): inactive

## C[C@]1(O)CC[C@H]2[C@@H]3CCC4=CC(=O)CC[C@@H]4[C@H]3CC[C@@]21C [lutenin, reference compound]
[4]
  antiplasmodial activity of common dietary flavonoids (reported): moderate to weak antiplasmodial activity

## O=c1c(O)c(-c2cc(O)c(O)c(O)c2)oc2cc(O)cc(O)c12 [myricetin, reference compound]
[4]
  antiplasmodial activity of common dietary flavonoids (reported): moderate to weak antiplasmodial activity

## O=c1c(O)c(-c2ccc(O)c(O)c2)oc2cc(O)cc(O)c12 [quercetin]
[4]
  antiplasmodial activity of common dietary flavonoids (reported): moderate to weak antiplasmodial activity

## pinoresinol [Pinoresinol (12)]
[4]
  activity against P. falciparum (previously reported): inactive
